The assay deals with T1, TXA2 receptors of human platelets (Homo sapiens, UniProt P21731).
T1 construct: Human platelets incubate in the presence of a single concentration; endogenous in cells; host or cells: human platelets
T1 sequence (P21731 1-343): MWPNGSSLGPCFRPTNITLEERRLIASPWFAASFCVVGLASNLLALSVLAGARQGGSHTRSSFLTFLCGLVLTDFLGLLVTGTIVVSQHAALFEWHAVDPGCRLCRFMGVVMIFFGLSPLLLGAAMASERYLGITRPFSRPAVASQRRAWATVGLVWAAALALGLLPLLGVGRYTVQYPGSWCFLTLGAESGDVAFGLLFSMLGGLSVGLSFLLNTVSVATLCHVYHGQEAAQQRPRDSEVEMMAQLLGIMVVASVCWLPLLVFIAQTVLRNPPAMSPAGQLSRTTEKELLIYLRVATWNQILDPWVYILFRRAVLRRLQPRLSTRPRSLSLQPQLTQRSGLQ
The assay is described as follows: displacement of radioligand [^125 I]PTA-OH specifically bound to the TXA2 receptors of human platelets. The following applies: for inhibition at 10 µM / inhibition at 0.1 µM: 0.5 h, 30 minutes at 37° C; for inhibition at 10 µM: 1E-5 M competing agent, read-out: % displacement, Concentration 1E-5 M; for inhibition at 0.1 µM: 1E-7 M competing agent, read-out: % displacement, Concentration 1E-7 M; for Ki: determined according to the formula of CHENG and PRUSOFF, read-out: Ki (inhibition constant). The format is binding. The procedure: The affinity of the products of the Examples described for thromboxane A2 receptors is evaluated by the technique of displacing a radioligand specifically bound to the TXA2 receptors of human platelets. […] The reaction is completed by the addition of a buffer, followed by rapid filtration through […] filters. […] The results are expressed, for the doses tested, as the percentage displacement of the radioligand specifically bound to the TXA2 receptors of human platelets.

These results are taken from patent US5128359A, “Benzimidazole and azabenzimidazole derivatives which are thromboxane receptor antagonists, their methods of preparation” (Laboratoires UPSA, priority 1990, dated 1992).

Consider `CC(C)(CC(=O)O)Cc1nc2cc(Cl)ccc2n1Cc1ccc(S(C)(=O)=O)cc1` [Example 119, 4-[1-(4-Methylsulfonylbenzyl)-5-chlorobenzimidazol-2-yl]-3,3-dimethylbutanoic acid], for which the inhibition at 10 µM came out at 82% and the inhibition at 0.1 µM came out at 61%.
In the case of `CC(C)(CC(N)=O)Cc1nc2ccccc2n1Cc1ccc(Cl)cc1` [Example 85, 4-[1-(4-Chlorobenzyl)benzimidazol-2-yl]-3,3-dimethylbutanamide], the inhibition at 10 µM is 90% and the inhibition at 0.1 µM came to 7%.
One may read the Ki as a measure of affinity in units of concentration, obtained from inhibition or displacement. Take `CC(C)(CC(=O)O)Cc1nc2cc(Cl)cnc2n1Cc1ccc(Cl)cc1` [Example 92]: the inhibition at 10 µM came to 100%, the inhibition at 0.1 µM was 97% and the Ki is 12.5 nM.
With `CC(C)(CCC(=O)O)Cc1nc2cc(F)ccc2n1Cc1ccc(Cl)cc1` [Example 158, 5-[1-(4-Chlorobenzyl)-5-fluorobenzimidazol-2-yl]-4,4-dimethylpentanoic acid], the inhibition at 10 µM is 87% and the inhibition at 0.1 µM stood at 56%.
The like results for `CCC(CC)(CC(=O)O)Cc1nc2ccccc2n1Cc1ccc(Cl)cc1` [Example 82, 4-[1-(4-Chlorobenzyl)benzimidazol-2-yl]-3,3-diethylbutanoic acid] were, in that order, 97% and 35%.
The like results for `CC(C)(CC(=O)O)Cc1nc2cc(F)ccc2n1Cc1ccc(Br)cc1F` [Example 105, 4-[1-(2-Fluoro-4-bromobenzyl)-5-fluorobenzimidazol-2-yl]-3,3-dimethylbutanoic acid] were, in that order, 98% and 100%.
The like results for `CC(C)(CC(=O)O)Cc1nc2cc(Cl)ccc2n1Cc1ccc(Cl)cc1F` [Example 123, 4-[1-(2-Fluoro-4-chlorobenzyl)-5-chlorobenzimidazol-2-yl]3,3-dimethylbutanoic acid] were, in that order, 87% and 77%.
Turning to `CC(C)(CC(=O)O)Cc1nc2cc(F)ccc2n1Cc1ccc(Cl)cc1` [Example 74, 4-[1-(4-Chlorobenzyl)-5-fluorobenzimidazol-2-yl]-3,3-dimethylbutanoic acid], the inhibition at 10 µM was 100%, the inhibition at 0.1 µM is 94% and the Ki amounted to 6.3 nM.
`CC(C)(CC(=O)O)Cc1nc2cc(Cl)ccc2n1Cc1ccc(Br)cc1` [Example 139, 4-[1 (4-Bromobenzyl)-5-chlorobenzimidazol-2-yl]-3,3-dimethylbutanoic acid]: the inhibition at 10 µM was found to be 100%, the inhibition at 0.1 µM is 98% and the Ki was determined as 13 nM.
The like results for `O=C(O)CC1(Cc2nc3cc(F)ccc3n2Cc2ccc(Cl)cc2)CCCCC1` [Example 73, [1-[1-(4-Chlorobenzyl)-5-fluorobenzimidazol-2-yl]methylcyclohex-1-yl]aceticacid] were, in that order, 98%, 0% and 807 nM.
On to `CC(C)(CC(=O)O)Cc1nc2cc(Cl)ccc2n1Cc1ccc(Cl)c(Cl)c1` [Example 101, 4-[1-(3,4-Dichlorobenzyl)-5-chlorobenzimidazol-2-yl]-3,3-dimethylbutanoic acid], for which the inhibition at 10 µM was determined as 92% and the inhibition at 0.1 µM was 71%.
For the compound `COc1ccc2c(c1)nc(CC(C)(C)CC(=O)O)n2Cc1ccc(Cl)cc1` [Example 78, 4-[1-(4-Chlorobenzyl)-5-methoxybenzimidazol-2-yl]-3,3-dimethylbutanoic acid], the inhibition at 10 µM was determined as 100% and the inhibition at 0.1 µM was determined as 44%.
As to `O=C(O)CCCCSc1nc2cc(F)ccc2n1Cc1ccc(Cl)cc1` [Example 59, 5-[1-(4-Chlorobenzyl)-5-fluorobenzimidazol-2-yl]mercaptopentanoic acid], the inhibition at 10 µM stood at 100% and the inhibition at 0.1 µM is 28%.
`CC(C)(CC(=O)O)Cc1nc2ccccc2n1Cc1ccccc1` [Example 58, 4-(1 Benzylbenzimidazol-2-yl)-3,3-dimethylbutanoic acid]: the inhibition at 10 µM was found to be 95% and the inhibition at 0.1 µM is 13%.
The like results for `O=C(O)[C@@H]1CC=CC[C@@H]1c1nc2cc(F)ccc2n1Cc1ccc(Cl)cc1` (relative stereo) [Example 161, Cis-5-[1-(4-chlorobenzyl)-5-fluorobenzimidazol-2-yl]cyclohexene-4-carboxylic acid] were, in that order, 96% and 15%.
On to `CSc1ccc(Cn2c(CC(C)(C)CC(=O)O)nc3cc(Cl)ccc32)cc1` [Example 117, 4-[1-(4-Methylthiobenzyl)-5-chlorobenzimidazol-2-yl]-3,3-dimethylbutanoic acid], for which the inhibition at 10 µM came to 89%, the inhibition at 0.1 µM was 87% and the Ki was 5.8 nM.
As for `CC(C)(CC(=O)O)Cc1nc2ccccc2n1Cc1ccc([N+](=O)[O-])cc1` [Example 81, 4-[1-(4-Nitrobenzyl)benzimidazol-2-yl]-3,3-dimethylbutanoic acid], the inhibition at 10 µM amounted to 100%, the inhibition at 0.1 µM was 83% and the Ki is 60.1 nM.
